# Results as given in patent publication US10815276B2, “Cell penetrating peptides and methods of making and using thereof” (Entrada Therapeutics, Inc., priority 2014, dated 2020).
# Starred links: 1 amine or outer side, 2 acyl side, 3 side chain; linkers in the order of their positions; H or OH if unused. Positions of bridges follow the written chain, without caps; N, C: chain ends. Non-standard residues stand in square brackets, D forms with d. Residues, ends and D or L forms follow the SMILES beside them. Trimesoyl = O=C(c1cc(C(=O)[*:2])cc(C(=O)[*:3])c1)[*:1]; 2Nal = N[C@@H](Cc1ccc2ccccc2c1)C(=O)O; NMeF = CN[C@@H](Cc1ccccc1)C(=O)O; Pip = O=C(O)[C@@H]1CCCCN1; Dap = NC[C@H](N)C(=O)O; Sar = CNCC(=O)O
# Tests used:
# [1] = Serum stability test (25% human serum); assay type: in vitro ADME; settings: 37° C.
# Method: The stability tests were carried by modifying a previously reported procedure (Nguyen, L T et al. […] At various time points (0-6 h), 200-μL aliquots were withdrawn and mixed with 50 μl of 15% trichloroacetic acid and incubated at 4° C. overnight. The final mixture was centrifuged at 15,000 rpm for 10 min in a microcentrifuge, and the supernatant was analyzed by reversed-phase HPLC equipped with a C18 column (Waters). The amount of remaining peptide (%) was determined by integrating the area underneath the peptide peak (monitored at 214 nm) and compared with that of the control reaction (no serum).
# Jurkat cells = test: In cellulo fluorimetric caspase assay; assay type: cell-based; settings: staurosporin-treated cells, 5 μM peptide, 10-h period
# Method: 100 μL of Jurkat cell suspension (5×10^5 cells/mL) was seeded in 96-well plate one hour prior to the experiment. Ten μL of staurosporine stock solution (10 μM) was added into half of the wells to induce apoptosis, while 10 μL of media was added to the other wells. After 1 h incubation, caspase-3 fluorogenic substrates were added to the cells to a final concentration of 5 μM. The fluorescence of the released coumarin was measured on the Spectramax M5 plate reader with excitation and emission wavelengths at 360 and 440 nm at various times points (0-6 h). The fluorescence unit (FU) increases between induced and uninduced cells were plotted against the time to present caspase-3 activities measured using various fluorogenic substrates in living cell in real-time. Three independent sets of experiments, each performed in triplicate, were conducted.
# Jurkat cells were pretreated with the kinase inhibitor staurosporin to induce caspase activities and thus apoptosis (Belmokhtar, C A et al. Biochem. J. 1996, 315, 21). These cells were then incubated with peptides 3-7 and the amount of Amc released was monitored at various time points (0-10 h). […] Peptide 4 produced the fastest fluorescence increase, reaching 459 fluorescence units (FU), followed by peptides 7 and 6. […] This slow rate of AMC release can be attributed to hydrolysis by other intracellular proteases and peptidases. Consistent with this interpretation, pretreatment of Jurkat cells with a pancaspase inhibitor Z-VAD(OMe)-FMK (Slee, E A et al. Biochem J. 1996, 315, 21) followed by incubation with peptide 4 released AMC at a rate that was similar to that of peptide 5 alone. One explanation of the above observations is that both peptides 4 and 5 can enter the cell interior efficiently, but only peptide 4 can be converted into the linear caspase substrate inside the cells.
# HeLa cells = test: FACS uptake of FITC-labeled peptides; assay type: cell-based, human; settings: 5 μM, 2 h
# Pin1 [2] = biological target: T1, Pin1 (Homo sapiens, UniProt Q13526, S16A/Y23A); test: Fluorescence anisotropy binding to Pin1
# T1 construct: The full-length human S16A/Y23A mutant Pin1 was expressed and purified from E. coli; made in house
# T1 sequence (Q13526 whole entry S16A/Y23A): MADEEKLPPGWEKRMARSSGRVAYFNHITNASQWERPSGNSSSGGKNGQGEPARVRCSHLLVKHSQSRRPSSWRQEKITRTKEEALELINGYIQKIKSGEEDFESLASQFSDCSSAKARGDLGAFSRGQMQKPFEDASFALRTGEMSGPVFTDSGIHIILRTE
# Method: The gene coding for the catalytic domain of PTP1B (amino acids 1-321) was amplified by the polymerase chain reaction using PTP1B cDNA as template and oligonucleotides 5′-[…]-3′ and 5′-[…]-3′ as primers. […] Expression and purification of the ybbR-tagged PTP1B were carried out as previously described (Ren, L et al. Biochemistry 2011, 50, 2339-2356). […] The reaction mixture was passed through a G-25 fast-desalting column equilibrated in 30 mM HEPES, pH 7.4, 150 mM NaCl to remove any free dye molecules. The full-length human S16A/Y23A mutant Pin1 was expressed and purified from E. coli as previously described (Liu, T et al. J. Med. Chem. 2010, 53, 2494-2501).
# FA experiments were carried out by incubating 100 nM FITC-labeled peptide with varying concentrations of protein in 20 mM HEPES (pH 7.4), 150 mM NaCl, 2 mM magnesium acetate, and 0.1% bovine serum albumin (BSA) for 2 h at room temperature. The FA values were measured on a Molecular Devices Spectramax M5 plate reader, with excitation and emission wavelengths at 485 and 525 nm, respectively. Equilibrium dissociation constants (KD) were determined by plotting the FA values as a function of protein concentration and fitting the curve to the following equation:
# [formula] where Y is the FA value at a given protein concentration x, L is the peptide concentration, Qb/Qf is the correction factor for fluorophore-protein interaction, Amax is the maximum FA value when all of the peptides are bound to protein, while Amin is the minimum FA value when all of the peptides are free. FA competition assay was performed by incubating 100 nM FITC-labeled Pin1 inhibitor 5 with 1 μM Pin1, followed by the addition of 0-5 μM unlabeled inhibitor. The FA values were measured similarly on a pate reader. IC50 values were obtained by plotting the FA values against the competitor concentration and curve fitting using the four-parameter dose-response inhibition equation (Prism 6, GraphPad).
# Pin1 [3] = biological target: T1, Pin1; test: Pin1 binding by FA (FITC-labeled peptides); settings: FITC-labeled peptide, FA; read-out: KD
# PTP1B = biological target: T2, PTP1B (Homo sapiens, UniProt P18031); test: PTP inhibition assay (pNPP); assay type: biochemical; settings: pNPP 0-24 mM; read-out: K1 (competitive inhibition constant)
# T2 construct: The gene coding for the catalytic domain of PTP1B (amino acids 1-321) was amplified; made in house; host or cells: prokaryotic vector pET-22b(+)-ybbR
# T2 sequence (P18031 1-321): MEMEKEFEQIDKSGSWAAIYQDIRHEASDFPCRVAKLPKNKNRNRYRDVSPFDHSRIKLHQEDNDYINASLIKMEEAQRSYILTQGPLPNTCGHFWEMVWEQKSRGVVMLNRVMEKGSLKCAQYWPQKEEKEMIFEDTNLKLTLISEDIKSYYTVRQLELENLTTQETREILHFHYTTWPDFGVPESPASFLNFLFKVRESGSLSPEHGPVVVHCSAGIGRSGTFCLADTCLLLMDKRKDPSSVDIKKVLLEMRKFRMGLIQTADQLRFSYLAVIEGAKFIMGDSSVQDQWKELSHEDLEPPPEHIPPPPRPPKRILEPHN
# Method: PTP assays were performed in a quartz microcuvette (total volume 150 μL). The reaction mixture contains 100 mM Tris-HCl, pH 7.4, 50 mM NaCl, 2 mM EDTA, 1 mM TCEP, 0-1 μM of PTP inhibitor, and 500 μM para-nitrophenyl phosphate (pNPP). The enzymatic reaction was initiated by the addition of PTP (final concentration 15-75 nM) and monitored continuously at 405 nm on a UV-VIS spectrophotometer. Initial rates were calculated from the reaction progress curves (typically <60 s). The half-maximal inhibition constant (IC50) was defined as the concentration of an inhibitor that reduced the enzyme activity to 50% and was obtained by plotting the rates (V) against the inhibitor concentration [I] and fitting the data against the equation
# [formula] where V0 is the enzymatic reaction rate in the absence of inhibitor. […] The reaction rate (V) was plotted against the pNPP concentration ([S]) and fitted against the equation
# [formula] to obtain the Michaelis constant K. The Ki value was obtained by plotting the K values against the inhibitor concentration [I] and fitted to equation
# [formula] where K0 is the Michaelis constant in the absence of inhibitor ([I]=0).
compound,measurement,setting,value
N=C(N)NCCC[C@H](NC(=O)[C@H](CCCNC(=N)N)NC(=O)[C@H](CCCNC(=N)N)NC(=O)[C@H](CCC(N)=O)NC(=O)[C@H](CCCNC(=N)N)NC(=O)[C@H](CCCNC(=N)N)NC(=O)[C@H](CCCCN)NC(=O)[C@H](CCCCN)NC(=O)[C@H](CCCNC(=N)N)NC(=O)CNC(=O)[C@@H](N)Cc1ccc(O)cc1)C(N)=O [Tat],half-life,[1],~30 min
"C[C@@H]1NC(=O)[C@H](CCCNC(=N)N)NC(=O)[C@H](Cc2ccc3ccccc3c2)NC(=O)[C@@H]2CCCCN2C(=O)[C@@H]([C@H](C)O)NC(=O)CNC(=O)[C@H](Cc2ccccc2)N(C)C(=O)c2cc3cc(c2)C(=O)NC[C@H](NC(=O)[C@@H](C)NC1=O)C(=O)N[C@@H](Cc1ccccc1)C(=O)N[C@@H](Cc1ccc2ccccc2c1)C(=O)N[C@@H](CCCNC(=N)N)C(=O)N[C@@H](CCCNC(=N)N)C(=O)N[C@@H](CCCNC(=N)N)C(=O)N[C@@H](CCCNC(=N)N)C(=O)N[C@H](C(=O)N[C@@H](CCCCN)C(N)=O)CNC3=O [Peptide 5, bicyclo[Tm-(Mpa-Gly-D-Thr-Pip-Nal-Arg-Ala-D-Ala)-Dap-(Phe-Nal-Arg-Arg-Arg-Arg-Dap)]-Lys] ([NMeF]G[dT][Pip][2Nal]RA[dA][Dap]F[2Nal]RRRR[Dap]K-NH2; linker N-9-16 via Trimesoyl; C-terminus assumed)",Fluorescence increase (released Amc),Jurkat cells,99 FU
"fluorescein isothiocyanate [FITC, reference compound]","Mean fluorescence intensity (MFI), total intracellular FITC fluorescence",HeLa cells,1200 arbitrary units (AU)
N=C(N)NCCC[C@H](NC(=O)[C@H](CCCNC(=N)N)NC(=O)[C@H](CCCNC(=N)N)NC(=O)[C@H](CCCNC(=N)N)NC(=O)[C@H](CCCNC(=N)N)NC(=O)[C@H](CCCNC(=N)N)NC(=O)[C@H](CCCNC(=N)N)NC(=O)[C@H](CCCNC(=N)N)NC(=O)[C@@H](N)CCCNC(=N)N)C(N)=O [Peptide R9],half-life at 50 μM,[1],~30 min
"C[C@@H]1NC(=O)[C@H](CCCNC(=N)N)NC(=O)[C@H](Cc2ccc3ccccc3c2)NC(=O)[C@@H]2CCCCN2C(=O)[C@@H](CC(=O)O)NC(=O)CN(C)C(=O)[C@@H]2CCCN2C(=O)c2cc3cc(c2)C(=O)NC[C@H](NC(=O)[C@@H](C)NC1=O)C(=O)N[C@@H](Cc1ccccc1)C(=O)N[C@@H](Cc1ccc2ccccc2c1)C(=O)N[C@@H](CCCNC(=N)N)C(=O)N[C@@H](CCCNC(=N)N)C(=O)N[C@@H](CCCNC(=N)N)C(=O)N[C@@H](CCCNC(=N)N)C(=O)N[C@H](C(=O)N[C@@H](CCCCN)C(N)=O)CNC3=O [Peptide 3, bicyclo[Tm-(Pro-Sar-D-Asp-Pip-Nal-Arg-Ala-D-Ala)-Dap-(Phe-Nal-Arg-Arg-Arg-Arg-Dap)]-Lys] (P[Sar][dD][Pip][2Nal]RA[dA][Dap]F[2Nal]RRRR[Dap]K-NH2; linker N-9-16 via Trimesoyl)",Fluorescence increase (released Amc),Jurkat cells,little fluorescence increase
"C[C@@H]1NC(=O)[C@H](CCCNC(=N)N)NC(=O)[C@H](Cc2ccc3ccccc3c2)NC(=O)[C@@H]2CCCCN2C(=O)[C@@H]([C@H](C)O)NC(=O)CN(C)C(=O)[C@@H](C)NC(=O)c2cc3cc(c2)C(=O)NC[C@H](NC(=O)[C@@H](C)NC1=O)C(=O)N[C@@H](Cc1ccccc1)C(=O)N[C@@H](Cc1ccc2ccccc2c1)C(=O)N[C@@H](CCCNC(=N)N)C(=O)N[C@@H](CCCNC(=N)N)C(=O)N[C@@H](CCCNC(=N)N)C(=O)N[C@@H](CCCNC(=N)N)C(=O)N[C@H](C(=O)N[C@@H](CCCCN)C(N)=O)CNC3=O [Peptide 2, bicyclo[Tm-(D-Ala-Sar-D-Thr-Pip-Nal-Arg-Ala-D-Ala)-Dap-(Phe-Nal-Arg-Arg-Arg-Arg-Dap)]-Lys] ([dA][Sar][dT][Pip][2Nal]RA[dA][Dap]F[2Nal]RRRR[Dap]K-NH2; linker N-9-16 via Trimesoyl)",Reduction of potency vs inhibitor 7,Pin1 [2],~10 fold
same,Kd,Pin1 [3],620 nM
same,Ki,PTP1B,54 nM
